Test system: Bmi-1 protein
Assay: Sandwich ELISA Assay (Bmi-1 protein level in HT-1080 cells after compound treatment)
Type: cell-based
Settings: Table 1, Bmi-1 sandwich ELISA, read-out: ELISA EC50 value for Bmi-1 protein
Procedure, shortened: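 Sandwich ELISA quantified Bmi-1 protein against recombinant standard (125–8000 pg/mL), with lysates captured overnight at 4 °C and signal by HRP/TMB at 450 nm (570 nm reference). Lysates came from HT-1080 cells incubated 40–48 h with test compounds in 0.5% DMSO.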

Row | Structure (SMILES) | EC50
1 | Cc1nn2ccccc2c1-c1cc(C#N)cc(Nc2ccc(OC(F)(F)F)cc2)n1 [compound 514, 2-(2-methylpyrazolo[1,5-a]pyridin-3-yl)-6-{[4-(trifluoromethoxy)phenyl]amino}pyridine-4-carbonitrile] | 100 to 3000 nM
2 | Cc1nc2ccccc2n1-c1cncc(Nc2ccc(C(F)(F)F)c(C#N)c2)n1 [compound 517, 5-{[6-(2-methyl-1H-benzimidazol-1-yl)pyrazin-2-yl]amino}-2-(trifluoromethyl)benzonitrile] | 100 to 3000 nM
3 | CCc1nn2ccccc2c1-c1cncc(Nc2ccc(OC(F)F)c(F)c2)n1 [compound 522, N-[4-(difluoromethoxy)-3-fluorophenyl]-6-(2-ethylpyrazolo[1,5-a]pyridin-3-yl)pyrazin-2-amine] | 10 to 100 nM
4 | CCc1nn2ccccc2c1-c1cncc(Nc2ccc(OC(F)(F)F)cc2)n1 [compound 523, 6-(2-ethylpyrazolo[1,5-a]pyridin-3-yl)-N-[4-(trifluoromethoxy)phenyl]pyrazin-2-amine] | 10 to 100 nM
5 | Cc1nc2ccccc2n1-c1cncc(Nc2ccc(C(F)(F)F)c(CN)c2)n1 [compound 524, N-[3-(aminomethyl)-4-(trifluoromethyl)phenyl]-6-(2-methyl-1H-benzimidazol-1-yl)pyrazin-2-amine] | 100 to 3000 nM
6 | Cc1nc2ccccc2n1-c1c[n+]([O-])cc(Nc2ccc(C(F)(F)F)cc2)n1 [compound 525, 6-(2-methyl-1H-benzimidazol-1-yl)-N-[4-(trifluoromethyl)phenyl]pyrazin-2-amine 4-oxide] | 10 to 100 nM
7 | CCc1nn2ccccc2c1-c1cc(C#N)cc(Nc2ccc(C(F)(F)F)cc2)n1 [compound 526, 2-(2-ethylpyrazolo[1,5-a]pyridin-3-yl)-6-{[4-(trifluoromethyl)phenyl]amino}pyridine-4-carbonitrile] | 10 to 100 nM
8 | CCc1nn2ccccc2c1-c1cc(C#N)cc(Nc2ccc(OC(F)F)cc2)n1 [compound 527, 2-{[4-(difluoromethoxy)phenyl]amino}-6-(2-ethylpyrazolo[1,5-a]pyridin-3-yl)pyridine-4-carbonitrile] | 10 to 100 nM
9 | CCc1nn2ccccc2c1-c1cc(C#N)cc(Nc2ccc(OC(F)F)c(F)c2)n1 [compound 528, 2-{[4-(difluoromethoxy)-3-fluorophenyl]amino}-6-(2-ethylpyrazolo[1,5-a]pyridin-3-yl)pyridine-4-carbonitrile] | 10 to 100 nM
10 | CCc1nn2ccccc2c1-c1cc(C#N)cc(Nc2ccc(OC(F)(F)F)cc2)n1 [compound 529, 2-(2-ethylpyrazolo[1,5-a]pyridin-3-yl)-6-{[4-(trifluoromethoxy)phenyl]amino}pyridine-4-carbonitrile] | 100 to 3000 nM
11 | [O-][n+]1cc(Nc2ccc(OC(F)F)cc2)nc(-n2c(C3CC3)nc3cc(F)c(F)cc32)c1 [compound 530, 6-(2-cyclopropyl-5,6-difluoro-1H-benzimidazol-1-yl)-N-[4-(difluoromethoxy)phenyl]pyrazin-2-amine 4-oxide] | 10 to 100 nM
12 | Cc1nc2ccccc2n1-c1c[n+]([O-])cc(Nc2ccc(OC(F)F)cc2)n1 [compound 531, N-[4-(difluoromethoxy)phenyl]-6-(2-methyl-1H-benzimidazol-1-yl)pyrazin-2-amine 4-oxide] | 10 to 100 nM
13 | Cc1nc2ccc(F)cc2n1-c1c[n+]([O-])cc(Nc2ccc(C(F)(F)F)cc2)n1 [compound 532, 6-(6-fluoro-2-methyl-1H-benzimidazol-1-yl)-N-[4-(trifluoromethyl)phenyl]pyrazin-2-amine 4-oxide] | 10 to 100 nM
14 | [O-][n+]1cc(Nc2ccc(C(F)(F)F)cc2)nc(-n2c(C3CC3)nc3ncc(F)cc32)c1 [compound 533, 6-(2-cyclopropyl-6-fluoro-1H-imidazo[4,5-b]pyridin-1-yl)-N-[4-(trifluoromethyl)phenyl]pyrazin-2-amine 4-oxide] | 10 to 100 nM
15 | [O-][n+]1cc(Nc2ccc(C(F)(F)F)cc2)nc(-c2c(C(F)(F)F)nc3ccccn23)c1 [compound 534, 6-[2-(trifluoromethyl)imidazo[1,2-a]pyridin-3-yl]-N-[4-(trifluoromethyl)phenyl]pyrazin-2-amine 4-oxide] | 10 to 100 nM
16 | Cc1nn2ccc(F)cc2c1-c1cncc(Nc2ccc(C(F)(F)F)cc2)n1 [compound 537, 6-(5-fluoro-2-methylpyrazolo[1,5-a]pyridin-3-yl)-N-[4-(trifluoromethyl)phenyl]pyrazin-2-amine] | 10 to 100 nM
17 | CCc1nn2ccc(Cl)cc2c1-c1cncc(Nc2ccc(C(F)(F)F)cc2)n1 [compound 539, 6-(5-chloro-2-ethylpyrazolo[1,5-a]pyridin-3-yl)-N-[4-(trifluoromethyl)phenyl]pyrazin-2-amine] | 10 to 100 nM
18 | Cc1nc2ncc(Cl)cc2n1-c1cncc(Nc2ccc(OC(F)(F)F)cc2)n1 [compound 542, 6-(6-chloro-2-methyl-1H-imidazo[4,5-b]pyridin-1-yl)-N-[4-(trifluoromethoxy)phenyl]pyrazin-2-amine] | 10 to 100 nM
19 | CCc1nc2ncc(Cl)cc2n1-c1cncc(Nc2ccc(C(F)(F)F)cc2)n1 [compound 543, 6-(6-chloro-2-ethyl-1H-imidazo[4,5-b]pyridin-1-yl)-N-[4-(trifluoromethyl)phenyl]pyrazin-2-amine] | 100 to 3000 nM

Now from value to molecule:

Row | EC50 | Structure (SMILES)
20 | 10 to 100 nM | Cc1nc2cc(F)c(F)cc2n1-c1cc(N)c(F)c(Nc2ccc(C(F)(F)F)cc2)n1 [compound 505, 6-(5,6-difluoro-2-methyl-1H-benzimidazol-1-yl)-3-fluoro-N^2-[4-(trifluoromethyl)phenyl]pyridine-2,4-diamine]
21 | 10 to 100 nM | Cc1nc2ccccc2n1-c1cncc(Nc2ccc(C(F)(F)F)c(N)c2)n1 [compound 506, N^1-[6-(2-methyl-1H-benzimidazol-1-yl)pyrazin-2-yl]-4-(trifluoromethyl)benzene-1,3-diamine]
22 | 10 to 100 nM | Cc1nc2ccccc2n1-c1cncc(Nc2ccc(C(F)F)cc2)n1 [compound 507, N-[4-(difluoromethyl)phenyl]-6-(2-methyl-1H-benzimidazol-1-yl)pyrazin-2-amine]
23 | 10 to 100 nM | Cc1nc2ccccc2n1-c1cncc(Nc2ccc(C(F)F)c(F)c2)n1 [compound 508, N-[4-(difluoromethyl)-3-fluorophenyl]-6-(2-methyl-1H-benzimidazol-1-yl)pyrazin-2-amine]
24 | 10 to 100 nM | CCc1nc2cc(F)c(F)cc2n1-c1cc(N)c(F)c(Nc2ccc(C(F)(F)F)cc2)n1 [compound 509, 6-(2-ethyl-5,6-difluoro-1H-benzimidazol-1-yl)-3-fluoro-N^2-[4-(trifluoromethyl)phenyl]pyridine-2,4-diamine]
25 | 10 to 100 nM | CCc1nc2ccccc2n1-c1cc(N)cc(Nc2ccc(C(F)(F)F)cc2)n1 [compound 510, 6-(2-ethyl-1H-benzimidazol-1-yl)-N^2-[4-(trifluoromethyl)phenyl]pyridine-2,4-diamine]
26 | 10 to 100 nM | Cc1nn2ccccc2c1-c1cc(C#N)cc(Nc2ccc(OC(F)F)cc2)n1 [compound 512, 2-{[4-(difluoromethoxy)phenyl]amino}-6-(2-methylpyrazolo[1,5-a]pyridin-3-yl)pyridine-4-carbonitrile]
27 | 10 to 100 nM | Cc1nn2ccccc2c1-c1cc(C#N)cc(Nc2ccc(OC(F)F)c(F)c2)n1 [compound 513, 2-{[4-(difluoromethoxy)-3-fluorophenyl]amino}-6-(2-methylpyrazolo[1,5-a]pyridin-3-yl)pyridine-4-carbonitrile]
28 | 10 to 100 nM | Cc1nc2ccccc2n1-c1cc(N)c(F)c(Nc2ccc(C(F)(F)F)cc2)n1 [compound 515, 3-fluoro-6-(2-methyl-1H-benzimidazol-1-yl)-N^2-[4-(trifluoromethyl)phenyl]pyridine-2,4-diamine]
29 | 10 to 100 nM | Cc1nc2cc(F)c(F)cc2n1-c1c[n+]([O-])cc(Nc2ccc(OC(F)F)cc2)n1 [compound 516, N-[4-(difluoromethoxy)phenyl]-6-(5,6-difluoro-2-methyl-1H-benzimidazol-1-yl)pyrazin-2-amine 4-oxide]
30 | 10 to 100 nM | Cc1nc2ccccc2n1-c1cncc(Nc2ccc(C(F)(F)F)c(CO)c2)n1 [compound 519]
31 | 1 to 10 nM | CCc1nn2ccccc2c1-c1cncc(Nc2ccc(C(F)(F)F)cc2)n1 [compound 520, 6-(2-ethylpyrazolo[1,5-a]pyridin-3-yl)-N-[4-(trifluoromethyl)phenyl]pyrazin-2-amine]
32 | 1 to 10 nM | CCc1nn2ccccc2c1-c1cncc(Nc2ccc(OC(F)F)cc2)n1 [compound 521, N-[4-(difluoromethoxy)phenyl]-6-(2-ethylpyrazolo[1,5-a]pyridin-3-yl)pyrazin-2-amine]
33 | 1 to 10 nM | [O-][n+]1cc(Nc2ccc(C(F)(F)F)cc2)nc(-c2c(C(F)(F)F)nc3ccc(F)cn23)c1 [compound 538, 6-[6-fluoro-2-(trifluoromethyl)imidazo[1,2-a]pyridin-3-yl]-N-[4-(trifluoromethyl)phenyl]pyrazin-2-amine 4-oxide]
34 | < 1 nM | Cc1nc2ncc(Cl)cc2n1-c1cncc(Nc2ccc(OC(F)F)cc2)n1 [compound 540, 6-(6-chloro-2-methyl-1H-imidazo[4,5-b]pyridin-1-yl)-N-[4-(difluoromethoxy)phenyl]pyrazin-2-amine]
35 | 1 to 10 nM | Cc1nc2ncc(Cl)cc2n1-c1cncc(Nc2ccc(OC(F)F)c(F)c2)n1 [compound 541, 6-(6-chloro-2-methyl-1H-imidazo[4,5-b]pyridin-1-yl)-N-[4-(difluoromethoxy)-3-fluorophenyl]pyrazin-2-amine]
36 | < 1 nM | CCc1nc2ncc(Cl)cc2n1-c1cncc(Nc2ccc(OC(F)F)cc2)n1 [compound 544, 6-(6-chloro-2-ethyl-1H-imidazo[4,5-b]pyridin-1-yl)-N-[4-(difluoromethoxy)phenyl]pyrazin-2-amine]

Same assay, conditions: read-out: ELISA EC50 value for Bmi-1 protein, Table 1, Bmi-1 sandwich ELISA

Row | Structure (SMILES) | EC50
37 | Cc1nn2ccccc2c1-c1cc(C#N)cc(Nc2ccc(C(F)(F)F)cc2)n1 [compound 511, 2-(2-methylpyrazolo[1,5-a]pyridin-3-yl)-6-{[4-(trifluoromethyl)phenyl]amino}pyridine-4-carbonitrile] | 10 to 100 nM
